According to patent publication US4078058A (priority 1976, dated 1978):

Assays:
Assay type in all cases: cell-based
[1] = test system: Pseudomonas aeruginosa; experiment: In vitro inhibition in nutrient broth, Pseudomonas aeruginosa; settings: no growth by 48 hours; inoculum 0.2 ml of 1/10,000 dilution of overnight culture
Description: (§1) In these tests bacterial growth was measured or observed by turbidity in the test tubes containing the inoculated nutrient broth after 18-20 hours incubation at 37° C.
(§2) *Concentration -- μM/ml which permitted no growth by 48 hours.
(§3) Inoculum = 0.2 ml of 1/10,000 dilution of overnight culture.

[2] = test system: Esch. coli; experiment: In vitro inhibition in nutrient broth, Esch. coli; settings: no growth by 48 hours; inoculum 0.2 ml of 1/10,000 dilution of overnight culture
Description: as §1, §2, §3

[3] = test system: bacterial growth; experiment: Inhibition of bacterial growth in nutrient broth (turbidity), organism not specified; settings: 18-20 hours incubation at 37° C.
Description: as §1

[4] = test system: Staph. aureus; experiment: In vitro inhibition in nutrient broth, Staph. aureus; settings: no growth by 48 hours; inoculum 0.2 ml of 1/10,000 dilution of overnight culture
Description: as §1, §2, §3

[5] = test system: Klebsiella pneumoniae; experiment: In vitro inhibition in nutrient broth, Klebsiella pneumoniae; settings: no growth by 48 hours; inoculum 0.2 ml of 1/10,000 dilution of overnight culture
Description: as §1, §2, §3

SMILES | Inhibitory concentration, Pseudomonas aeruginosa [1] | Inhibitory concentration, Esch. coli [2] | concentration inhibiting bacterial growth [3] | Inhibitory concentration, Staph. aureus [4] | Inhibitory concentration, Klebsiella pneumoniae [5]
O=[N+]([O-])[O-].O=[N+]([O-])[O-].O=[N+]([O-])[O-].[Ce+3] [Cerous nitrate, cerous nitrate] | 2.5 μM per ml | 2.5 μM per ml | at least 1.0 μM per ml | 5.0 μM per ml | 5.0 μM per ml
O=[N+]([O-])[O-].[Ag+] [Silver nitrate, silver nitrate] | 0.025 μM per ml | 0.005 μM per ml |  | 0.005 μM per ml | 0.1 μM per ml
